According to ChEMBL document CHEMBL3046319, “PCR-RFLP detection of the E198A mutation conferring resistance to benzimidazoles in field isolates of Monilinia laxa from Greece” (Crop Prot, 2012):
≈ marks a conversion by molar mass, not a printed value. Calls of active or inactive are those of the source. No cut-off for these calls is given here.

What was measured:
Monilinia laxa [1] = test: Fungicidal activity against Monilinia laxa isolate MLBO3 assessed as reduction in mycelial growth rate at 25 degC after 4 days; format: functional, organism-based; settings: isolate MLBO3, 96 h
Monilinia laxa [2] = test: Fungicidal activity against Monilinia laxa isolate MLB1 assessed as reduction in mycelial growth rate at 25 degC after 4 days; format: functional, organism-based; settings: isolate MLB1, 96 h
Monilinia laxa [3] = test: Fungicidal activity against Monilinia laxa isolate MLK10 assessed as reduction in mycelial growth rate at 1 to 10 ug/ml at 31 degC after 5 days; format: functional, organism-based
Monilinia laxa [4] = test: Fungicidal activity against Monilinia laxa isolate MLC4 assessed as reduction in mycelial growth rate at 1 to 10 ug/ml at 31 degC after 5 days; format: functional, organism-based
Monilinia laxa [5] = test: Fungicidal activity against Monilinia laxa isolate MLC3 assessed as reduction in mycelial growth rate at 1 to 10 ug/ml at 31 degC after 5 days; format: functional, organism-based
Monilinia laxa [6] = test: Fungicidal activity against Monilinia laxa isolate MLBO2 assessed as mean number of conidia produced in the colony at 25 degC after 12 days by haemocytometer; format: functional
Monilinia laxa [7] = test: Fungicidal activity against Monilinia laxa isolate MLP4 assessed as mean mycelial colony diameter at 25 degC after 4 days; format: functional
Monilinia laxa [8] = test: Fungicidal activity against Monilinia laxa isolate MLX5 assessed as mean mycelial colony diameter at 25 degC after 4 days; format: functional
Monilinia laxa [9] = test: Fungicidal activity against Monilinia laxa isolate MLA1 assessed as mean mycelial colony diameter at 25 degC after 4 days; format: functional
Monilinia laxa [10] = test: Fungicidal activity against Monilinia laxa isolate MLAl8 assessed as reduction in mycelial growth rate at 1 to 10 ug/ml at 31 degC after 5 days; format: functional, organism-based
Monilinia laxa [11] = test: Fungicidal activity against Monilinia laxa isolate KX4 assessed as reduction in mycelial growth rate at 1 to 10 ug/ml at 28 degC after 8 days; format: functional, organism-based
Monilinia laxa [12] = test: Fungicidal activity against Monilinia laxa isolate MLX3 assessed as reduction in mycelial growth rate at 1 to 10 ug/ml at 28 degC after 8 days; format: functional, organism-based
Monilinia laxa [13] = test: Fungicidal activity against Monilinia laxa isolate MLX1 assessed as reduction in mycelial growth rate at 1 to 10 ug/ml at 28 degC after 8 days; format: functional, organism-based
Monilinia laxa [14] = test: Fungicidal activity against Monilinia laxa isolate MLG1 assessed as reduction in mycelial growth rate at 25 degC after 4 days; format: functional, organism-based; settings: isolate MLG1, 96 h
Monilinia laxa [15] = test: Fungicidal activity against Monilinia laxa isolate MLC3 assessed as reduction in mycelial growth rate at 1 to 10 ug/ml at 28 degC after 8 days; format: functional, organism-based
Monilinia laxa [16] = test: Fungicidal activity against Monilinia laxa isolate MLP4 assessed as mycelial growth at 1 ug/ml at 25 degC after 4 days; format: functional
Monilinia laxa [17] = test: Fungicidal activity against Monilinia laxa isolate MLBO6 assessed as reduction in mycelial growth rate at 25 degC after 4 days; format: functional, organism-based; settings: isolate MLBO6, 96 h
Monilinia laxa [18] = test: Fungicidal activity against Monilinia laxa isolate KX5 assessed as reduction in mycelial growth rate at 1 to 10 ug/ml at 25 to 28 degC; format: functional, organism-based
Monilinia laxa [19] = test: Fungicidal activity against Monilinia laxa isolate MLK6 assessed as reduction in mycelial growth rate at 1 to 10 ug/ml at 25 to 28 degC; format: functional, organism-based
Monilinia laxa [20] = test: Fungicidal activity against Monilinia laxa isolate MLK5 assessed as reduction in mycelial growth rate at 1 to 10 ug/ml at 25 to 28 degC; format: functional, organism-based
Monilinia laxa [21] = test: Fungicidal activity against Monilinia laxa isolate KX3 assessed as reduction in mycelial growth rate at 1 to 10 ug/ml at 31 degC after 5 days; format: functional, organism-based
Monilinia laxa [22] = test: Fungicidal activity against Monilinia laxa isolate KX2 assessed as reduction in mycelial growth rate at 1 to 10 ug/ml at 31 degC after 5 days; format: functional, organism-based
Monilinia laxa [23] = test: Fungicidal activity against Monilinia laxa isolate MLBO5 assessed as reduction in mycelial growth rate at 1 to 10 ug/ml at 31 degC after 5 days; format: functional, organism-based
Monilinia laxa [24] = test: Fungicidal activity against Monilinia laxa isolate MLBO5 assessed as mycelial growth at 1 ug/ml at 25 degC after 4 days; format: functional
Monilinia laxa [25] = test: Fungicidal activity against Monilinia laxa isolate MLP4 assessed as reduction in mycelial growth rate at 1 to 10 ug/ml at 31 degC after 5 days; format: functional, organism-based
Monilinia laxa [26] = test: Fungicidal activity against Monilinia laxa isolate MLP4 assessed as virulence in prune fruits assessed as virulence treated 10 min prior to mycelial inoculation at 24 degC after 10 days relative to isolate MLX1by pathogenicity bioassay; format: functional
Monilinia laxa [27] = test: Fungicidal activity against Monilinia laxa isolate MLK12 assessed as virulence in prune fruits assessed as virulence treated 10 min prior to mycelial inoculation at 24 degC after 10 days relative to isolate MLX1by pathogenicity bioassay; format: functional
Monilinia laxa [28] = test: Fungicidal activity against Monilinia laxa isolate MLG1 assessed as mean mycelial colony diameter at 25 degC after 4 days; format: functional
Monilinia laxa [29] = test: Fungicidal activity against Monilinia laxa isolate MLP2 assessed as virulence in prune fruits assessed as virulence treated 10 min prior to mycelial inoculation at 24 degC after 10 days relative to isolate MLX1by pathogenicity bioassay; format: functional
Monilinia laxa [30] = test: Fungicidal activity against Monilinia laxa isolate MLBO2 assessed as virulence in prune fruits assessed as virulence treated 10 min prior to mycelial inoculation at 24 degC after 10 days relative to isolate MLX1by pathogenicity bioassay; format: functional
Monilinia laxa [31] = test: Fungicidal activity against Monilinia laxa isolate MLBO1 assessed as reduction in mycelial growth rate at 1 to 10 ug/ml at 31 degC after 5 days; format: functional, organism-based
Monilinia laxa [32] = test: Fungicidal activity against Monilinia laxa isolate MLB1 assessed as reduction in mycelial growth rate at 1 to 10 ug/ml at 31 degC after 5 days; format: functional, organism-based
Monilinia laxa [33] = test: Fungicidal activity against Monilinia laxa isolate MLNS2 assessed as reduction in mycelial growth rate at 1 to 10 ug/ml at 31 degC after 5 days; format: functional, organism-based
Monilinia laxa [34] = test: Fungicidal activity against Monilinia laxa isolate MLX3 assessed as reduction in mycelial growth rate at 1 to 10 ug/ml at 31 degC after 5 days; format: functional, organism-based
Monilinia laxa [35] = test: Fungicidal activity against Monilinia laxa isolate KX2 assessed as reduction in mycelial growth rate at 25 degC after 4 days; format: functional, organism-based; settings: isolate KX2, 96 h
Monilinia laxa [36] = test: Fungicidal activity against Monilinia laxa isolate KX1 assessed as reduction in mycelial growth rate at 25 degC after 4 days; format: functional, organism-based; settings: isolate KX1, 96 h
Monilinia laxa [37] = test: Fungicidal activity against Monilinia laxa isolate MLX4 assessed as reduction in mycelial growth rate at 25 degC after 4 days; format: functional, organism-based; settings: isolate MLX4, 96 h
Monilinia laxa [38] = test: Fungicidal activity against Monilinia laxa isolate MLP7 assessed as reduction in mycelial growth rate at 25 degC after 4 days; format: functional, organism-based; settings: isolate MLP7, 96 h
Monilinia laxa [39] = test: Fungicidal activity against Monilinia laxa isolate MLP2 assessed as reduction in mycelial growth rate at 25 degC after 4 days; format: functional, organism-based; settings: isolate MLP2, 96 h
Monilinia laxa [40] = test: Fungicidal activity against Monilinia laxa isolate MLK24 assessed as reduction in mycelial growth rate at 25 degC after 4 days; format: functional, organism-based; settings: isolate MLK24, 96 h
Monilinia laxa [41] = test: Fungicidal activity against Monilinia laxa isolate MLK8 assessed as reduction in mycelial growth rate at 25 degC after 4 days; format: functional, organism-based; settings: isolate MLK8, 96 h

COC(=O)Nc1nc2ccccc2[nH]1 [CARBENDAZIM]
EC50 (Monilinia laxa [1]): 0.05 µg/mL (≈ 0.262 µM)
EC50 (Monilinia laxa [2]): > 50 µg/mL
inhibition (Monilinia laxa [3]): Active
inhibition (Monilinia laxa [4]): Active
inhibition (Monilinia laxa [5]): Active
Activity (Monilinia laxa [6]): 3.54 /cm2
Activity (Monilinia laxa [7]): 32.5 mm
Activity (Monilinia laxa [8]): 28.3 mm
Activity (Monilinia laxa [9]): 27.1 mm
inhibition (Monilinia laxa [10]): Active
inhibition (Monilinia laxa [11]): inactive
inhibition (Monilinia laxa [12]): inactive
inhibition (Monilinia laxa [13]): inactive
EC50 (Monilinia laxa [14]): 0.1 µg/mL (≈ 0.523 µM)
inhibition (Monilinia laxa [15]): inactive
Activity (Monilinia laxa [16]): 94.44%
EC50 (Monilinia laxa [17]): 0.12 µg/mL (≈ 0.628 µM)
inhibition (Monilinia laxa [18]): inactive
inhibition (Monilinia laxa [19]): inactive
inhibition (Monilinia laxa [20]): inactive
inhibition (Monilinia laxa [21]): Active
inhibition (Monilinia laxa [22]): Active
inhibition (Monilinia laxa [23]): Active
Activity (Monilinia laxa [24]): 0%
inhibition (Monilinia laxa [25]): Active
Activity (Monilinia laxa [26]): 100%
Activity (Monilinia laxa [27]): 99.2%
Activity (Monilinia laxa [28]): 25.55 mm
Activity (Monilinia laxa [29]): 87.37%
Activity (Monilinia laxa [30]): 95%
inhibition (Monilinia laxa [31]): Active
inhibition (Monilinia laxa [32]): Active
inhibition (Monilinia laxa [33]): Active
inhibition (Monilinia laxa [34]): Active
EC50 (Monilinia laxa [35]): 0.08 µg/mL (≈ 0.418 µM)
EC50 (Monilinia laxa [36]): 0.06 µg/mL (≈ 0.314 µM)
EC50 (Monilinia laxa [37]): 0.11 µg/mL (≈ 0.575 µM)
EC50 (Monilinia laxa [38]): > 50 µg/mL
EC50 (Monilinia laxa [39]): 0.06 µg/mL (≈ 0.314 µM)
EC50 (Monilinia laxa [40]): 0.02 µg/mL (≈ 0.105 µM)
EC50 (Monilinia laxa [41]): 0.09 µg/mL (≈ 0.471 µM)
